Measured values taken from article PMC8010095, “Discovery of novel antituberculosis agents among 3-phenyl-5-(1-phenyl-1H-[1,2,3]triazol-4-yl)-[1,2,4]oxadiazole derivatives targeting aminoacyl-tRNA synthetases” (Scientific Reports, 2021).
Values after ≈ are worked out from the molar mass of the structure shown. “Also recorded” adds a separate entry of the source. Read-outs that look alike come from different tables or passages of the source.

Experiments:
[1] = tested on: Staphylococcus aureus MetRS; parameters: method as in PMID 19015366; conditions: S. aureus MetRS versus human mitochondrial MetRS; cited from earlier work
[2] = biological target: T1, M. tuberculosis leucyl-tRNA synthetase (LeuRS) (Mycobacterium tuberculosis, UniProt P9WFV1); experiment: biochemical; type: biochemical
T1 construct: made in house; host or cells: Escherichia coli
T1 sequence (P9WFV1 whole entry): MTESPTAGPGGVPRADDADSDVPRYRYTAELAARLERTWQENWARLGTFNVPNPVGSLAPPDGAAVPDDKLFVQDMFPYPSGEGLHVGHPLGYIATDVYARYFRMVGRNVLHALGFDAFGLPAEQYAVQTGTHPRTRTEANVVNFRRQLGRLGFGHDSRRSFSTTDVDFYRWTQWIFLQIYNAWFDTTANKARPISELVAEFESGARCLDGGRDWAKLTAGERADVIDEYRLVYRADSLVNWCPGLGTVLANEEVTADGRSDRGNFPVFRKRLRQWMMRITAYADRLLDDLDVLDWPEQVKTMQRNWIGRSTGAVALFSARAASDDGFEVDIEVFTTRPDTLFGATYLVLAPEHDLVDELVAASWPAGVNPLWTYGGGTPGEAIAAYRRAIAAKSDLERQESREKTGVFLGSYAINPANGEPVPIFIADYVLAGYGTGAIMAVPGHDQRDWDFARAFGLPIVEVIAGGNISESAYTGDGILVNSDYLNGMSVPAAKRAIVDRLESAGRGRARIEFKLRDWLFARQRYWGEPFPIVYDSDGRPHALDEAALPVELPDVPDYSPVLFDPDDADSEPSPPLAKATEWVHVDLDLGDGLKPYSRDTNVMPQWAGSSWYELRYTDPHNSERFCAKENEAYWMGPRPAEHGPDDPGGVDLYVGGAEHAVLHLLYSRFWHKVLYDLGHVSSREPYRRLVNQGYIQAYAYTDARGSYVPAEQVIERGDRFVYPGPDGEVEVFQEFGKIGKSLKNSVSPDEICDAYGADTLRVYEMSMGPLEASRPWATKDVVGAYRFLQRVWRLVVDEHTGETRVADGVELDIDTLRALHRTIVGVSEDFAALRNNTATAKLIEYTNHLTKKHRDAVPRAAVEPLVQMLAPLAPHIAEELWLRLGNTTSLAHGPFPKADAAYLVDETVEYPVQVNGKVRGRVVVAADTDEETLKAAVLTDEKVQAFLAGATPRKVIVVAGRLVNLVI

[3] = tested on: Mycobacterium abscessus (ATCC 19,977); experiment: microbe, parasite or virus in culture; type: cell-based; conditions: > 80% reduction in growth, screened at 20, 2 and 0.2 mg/L, 7H9 complete medium; for MIC: Mycobacteroides abscessus, ATCC19, read-out: Growth inhibition cutoff, M. abscessus 19,977
[4] = tested on: M. tuberculosis H37Rv; experiment: microbe, parasite or virus in culture; type: cell-based; conditions: > 80% reduction in growth, screened at 20, 2 and 0.2 mg/L, 7H9 complete medium; for MIC: Mycobacterium tuberculosis, H37RV, read-out: Growth inhibition cutoff, H37Rv
[5] = tested on: HEK293 (human embryonic kidney 293); experiment: MTT cytotoxicity assay, HEK293; type: cell-based; conditions: 3.125 µM to 50 µM
Method: (§1) We have tested compound 27 for cytotoxicity toward human cell lines HEK293 (human embryonic kidney 293) and HepG2 (human hepatocellular carcinoma cell line) using standard MTT assay.
(§2) Compound cytotoxicity was determined by standard MTT assay[37] using human embryonic kidney 293 (HEK293) and human hepatocellular carcinoma (HepG2) cell lines according to the method described previously. HEK 293 cell line was obtained from the Russian Cell Culture Collection (Institute of Cytology of the Russian Academy of Science, St.Petersburg, Russia) and HepG2 – from the Bank of Cell Lines from human and animal tissue (R. E. Kavetsky Institute of Experimental Pathology, Oncology and Radiobiology, NAS of Ukraine, Kyiv, Ukraine).

[6] = MTT cytotoxicity assay, HEK293; type: cell-based, human; conditions: human, hek293 cells, read-out: CC50, concentration to cause 50% cytotoxicity
Method: as §1, §2

[7] = tested on: HepG2 (human hepatocellular carcinoma cell line); experiment: MTT cytotoxicity assay, HepG2; type: cell-based; conditions: 3.125 µM to 50 µM
Method: as §1, §2

[8] = MTT cytotoxicity assay, HepG2; type: cell-based, human; conditions: human, hepg2 cells, read-out: CC50, concentration to cause 50% cytotoxicity
Method: as §1, §2

[9] = tested on: Mycobacterium avium (ATCC 700,891 MAC 101); experiment: microbe, parasite or virus in culture; type: cell-based; conditions: > 80% reduction in growth, screened at 20, 2 and 0.2 mg/L, 7H9 complete medium; for MIC: Mycobacterium avium, ATCC700, read-out: Growth inhibition cutoff, M. avium 700,891 (MAC 101)
[10] = biological target: T2, M. tuberculosis methionyl-tRNA synthetase (MetRS) (Mycobacterium tuberculosis, UniProt P9WFU5); experiment: biochemical; type: biochemical; conditions: for IC50: mean ± s.d. (n = 3)
T2 construct: made in house; host or cells: Escherichia coli
T2 sequence (P9WFU5 whole entry): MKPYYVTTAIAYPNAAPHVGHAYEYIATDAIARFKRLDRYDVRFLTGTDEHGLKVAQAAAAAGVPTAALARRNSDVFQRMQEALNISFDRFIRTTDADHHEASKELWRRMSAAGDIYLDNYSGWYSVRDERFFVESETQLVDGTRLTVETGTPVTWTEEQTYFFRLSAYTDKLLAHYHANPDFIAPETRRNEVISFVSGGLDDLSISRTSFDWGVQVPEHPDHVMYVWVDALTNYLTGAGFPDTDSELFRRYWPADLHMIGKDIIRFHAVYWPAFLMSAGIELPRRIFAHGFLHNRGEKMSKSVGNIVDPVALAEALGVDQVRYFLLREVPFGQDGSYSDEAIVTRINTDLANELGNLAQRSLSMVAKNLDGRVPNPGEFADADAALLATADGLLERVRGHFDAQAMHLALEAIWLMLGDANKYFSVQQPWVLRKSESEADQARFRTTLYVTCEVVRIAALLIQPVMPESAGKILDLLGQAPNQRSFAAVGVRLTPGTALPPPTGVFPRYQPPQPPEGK

[11] = tested on: M. tuberculosis H37Rv; experiment: microbe, parasite or virus in culture; type: cell-based, Mycobacterium tuberculosis; conditions: read-out: 2-week MIC
[12] = biological target: T2, M. tuberculosis methionyl-tRNA synthetase (MetRS); parameters: method as in PMID 31691918; conditions: from the previous article ref 22; cited from earlier work
[13] = tested on: M. tuberculosis; parameters: method as in PMID 31691918; conditions: earlier identified hit; cited from earlier work
[14] = biological target: T1, M. tuberculosis leucyl-tRNA synthetase (LeuRS); parameters: method as in PMID 31691918; conditions: from the previous article ref 22; cited from earlier work
[15] = tested on: human cytoplasmic LeuRS; parameters: method as in PMID 28953378; conditions: cited from earlier work
[16] = tested on: tuberculosis; parameters: method as in PMID 28953378; conditions: cited from earlier work
[17] = tested on: mycobacterial LeuRS; parameters: method as in PMID 28953378; conditions: cited from earlier work
[18] = tested on: human mitochondrial LeuRS; parameters: method as in PMID 28953378; conditions: cited from earlier work
[19] = recombinant enzyme, mean ± spread (n in brackets), negative = activation

Row | Compound | LeuRS inhibition activity, % [2] | MIC [3] [µg/mL] | MIC [4] [µg/mL] | MIC [9] [µg/mL] | MetRS inhibition activity, % [10] | IC50 [10] [µM] | LeuRS inhibition activity, % [2, 19] | Growth inhibition cutoff, M. abscessus 19,977 [3] [mg/L] | Growth inhibition cutoff, H37Rv [4] [mg/L] | Growth inhibition cutoff, M. avium 700,891 (MAC 101) [9] [mg/L] | MetRS inhibition activity, % [10, 19] | other results
1 | C=C(F)c1sc(CNCCCNc2cc(O)c3ccccc3n2)c(C)c1Br [REP8839] | – | – | – | – | – | – | – | – | – | – | – | affinity for the bacterial enzyme relative to human mitochondrial MetRS [1]: 1000 fold
2 | COc1ccc(Cl)cc1-n1nnc(-c2nc(-c3ccc(F)cc3)no2)c1N [Compound 27] | 14 ± 12 (2) % | > 20 | > 20 | > 20 | 57 ± 11 (3) % | 148 ± 33.2 | – | – | – | – | – | cytotoxicity / effect on cell viability [5]: did not affect cell viability; also recorded: not cytotoxic; CC50 [6]: > 50 µM; cytotoxicity / effect on cell viability [7]: did not affect cell viability; also recorded: not cytotoxic; CC50 [8]: > 50 µM; MIC ([11]; Mycobacterium tuberculosis, H37RV, 336 h): 25 µM (≈ 9.67 µg/mL); MIC [11]: > 50 µM
3 | COc1ccc(-n2nnc(-c3nc(-c4ccc(F)cc4)no3)c2N)cc1Cl [Compound 17, 3-(3-chloro-4-methoxy-phenyl)-5-[3-(4-fluoro-phenyl)-[1,2,4]oxadiazol-5-yl]-3H-[1,2,3]triazol-4-ylamine] | – | – | – | – | – | – | 51 ± 28 (2) % | > 20 | > 20 | > 20 | 77 ± 3 (2) % | IC50 [12]: 13.8 µM; antibacterial activity toward M. tuberculosis [13]: does not have antibacterial activity; IC50 [14]: 13 µM
4 | Nc1c(-c2nc(-c3ccc(F)cc3)no2)nnn1-c1ccc(F)cc1 [Compound 12] | – | – | – | – | – | – | 3 ± 7 (2) % | > 20 | > 20 | > 20 | 52 ± 6 (2) % | –
5 | NC[C@H]1OB(O)c2c(OCCO)ccc(Cl)c21 [GSK656, (S)-3-(Aminomethyl)-4-chloro-7-(2-hydroxyethoxy) benzo [c][1, 2] oxaborol-1 (3 H)-ol] | – | – | – | – | – | – | – | – | – | – | – | IC50 [15]: > 300 µM; efficacy in an animal model of tuberculosis [16]: effective; IC50 [17]: 0.2 µM; IC50 [18]: > 300 µM
6 | Nc1c(-c2nc(-c3ccccc3)no2)nnn1-c1ccc(C(F)(F)F)c(Cl)c1 [Compound 2] | 32 ± 19 (3) % | > 20 | > 20 | > 20 | 71 ± 29 (2) % | 115 ± 3 | – | – | – | – | – | IC50 ([2]; mean ± s.d. (n = 3)): 76.5 ± 66 µM
